Source: ChEMBL document CHEMBL1128086, “Serine protease selectivity of the thrombin inhibitor D-Phe-Pro-Agmatine and its homologs” (Bioorg Med Chem Lett, 1995)

What was measured:
[1] = target: Plasminogen (Homo sapiens) (UniProt P00747); test: In vitro inhibitory potency against plasmin
[2] = target: Prothrombin (Homo sapiens) (UniProt P00734); test: In vitro inhibitory potency against human alpha-thrombin
[3] = target: Urokinase-type plasminogen activator (Homo sapiens) (UniProt P00749); test: In vitro inhibitory potency against Urokinase-type plasminogen activator in human
[4] = target: Serine protease 1 (Homo sapiens) (UniProt P07477); test: In vitro inhibitory potency against trypsin
[5] = target: Tissue-type plasminogen activator (Homo sapiens) (UniProt P00750); test: In vitro inhibitory potency against n-tissue plasminogen activator in human
[6] = target: Thrombin and urokinase-type plasminogen activator (Homo sapiens) (UniProt P00734+P00749); test: Selectivity ratio of thrombin Kass to Urokinase Kass; type: protein assay
[7] = Selectivity ratio of thrombin Kass to ntPA Kass
[8] = Selectivity ratio of thrombin Kass to plasmin Kass
[9] = target: Thrombin & trypsin (Homo sapiens) (UniProt P00734+P07477+P07478+P35030); test: Selectivity ratio of thrombin Kass to trypsin Kass; type: protein assay
[10] = target: Plasminogen (Homo sapiens) (UniProt P00747); test: In vitro inhibitory potency against plasmin; no enzyme inhibition was observed at an inhibitor concentration of 200 uM
[11] = target: Urokinase-type plasminogen activator (Homo sapiens) (UniProt P00749); test: In vitro inhibitory potency against Urokinase-type plasminogen activator in human; no enzyme inhibition was observed at an inhibitor concentration of 200 uM
[12] = target: Tissue-type plasminogen activator (Homo sapiens) (UniProt P00750); test: In vitro inhibitory potency against n-tissue plasminogen activator in humans; no enzyme inhibition was observed at an inhibitor concentration of 200 uM
[13] = target: Tissue-type plasminogen activator (Homo sapiens) (UniProt P00750); test: In vitro inhibitory potency against n-tissue plasminogen activator in human; no enzyme inhibition was observed at an inhibitor concentration of 200 uM

Sequence of Plasminogen (Homo sapiens) (P00747 97-580 limits assumed): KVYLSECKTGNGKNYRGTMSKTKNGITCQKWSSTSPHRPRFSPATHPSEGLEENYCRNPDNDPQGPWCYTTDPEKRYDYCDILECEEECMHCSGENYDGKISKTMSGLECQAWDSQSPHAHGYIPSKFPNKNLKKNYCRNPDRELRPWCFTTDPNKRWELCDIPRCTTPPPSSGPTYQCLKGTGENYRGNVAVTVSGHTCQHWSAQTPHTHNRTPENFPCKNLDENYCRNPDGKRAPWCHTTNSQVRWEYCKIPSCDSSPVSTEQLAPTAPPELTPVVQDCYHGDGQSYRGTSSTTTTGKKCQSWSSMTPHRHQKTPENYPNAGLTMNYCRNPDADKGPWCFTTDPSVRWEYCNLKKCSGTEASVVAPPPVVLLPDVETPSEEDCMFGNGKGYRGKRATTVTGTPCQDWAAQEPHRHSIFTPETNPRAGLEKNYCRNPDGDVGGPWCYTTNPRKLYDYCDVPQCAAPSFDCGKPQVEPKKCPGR
Sequence of Plasminogen (Homo sapiens) (P00747 581-810 limits assumed): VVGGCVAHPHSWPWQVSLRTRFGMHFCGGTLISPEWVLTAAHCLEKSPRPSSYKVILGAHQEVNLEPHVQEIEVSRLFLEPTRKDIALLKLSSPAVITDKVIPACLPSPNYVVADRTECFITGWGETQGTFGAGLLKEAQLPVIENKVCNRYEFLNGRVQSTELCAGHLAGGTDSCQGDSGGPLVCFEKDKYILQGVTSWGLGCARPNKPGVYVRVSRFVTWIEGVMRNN
Sequence of Tissue-type plasminogen activator (Homo sapiens) (P00750 36-562 limits assumed): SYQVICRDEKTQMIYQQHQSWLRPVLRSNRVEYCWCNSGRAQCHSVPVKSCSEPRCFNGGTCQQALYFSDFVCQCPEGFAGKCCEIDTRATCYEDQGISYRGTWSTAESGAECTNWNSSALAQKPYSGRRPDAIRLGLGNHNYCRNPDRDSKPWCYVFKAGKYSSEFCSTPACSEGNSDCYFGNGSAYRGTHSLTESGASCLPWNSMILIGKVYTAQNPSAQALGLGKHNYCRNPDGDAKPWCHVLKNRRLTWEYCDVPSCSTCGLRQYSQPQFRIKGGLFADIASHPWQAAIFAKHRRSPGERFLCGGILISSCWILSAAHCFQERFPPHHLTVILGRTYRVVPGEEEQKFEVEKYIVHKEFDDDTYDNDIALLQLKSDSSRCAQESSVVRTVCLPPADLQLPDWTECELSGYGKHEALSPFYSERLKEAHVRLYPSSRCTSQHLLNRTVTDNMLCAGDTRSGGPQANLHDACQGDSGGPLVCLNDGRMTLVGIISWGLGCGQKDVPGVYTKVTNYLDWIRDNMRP
Sequence of Serine protease 1 (Homo sapiens) (P07477 whole entry): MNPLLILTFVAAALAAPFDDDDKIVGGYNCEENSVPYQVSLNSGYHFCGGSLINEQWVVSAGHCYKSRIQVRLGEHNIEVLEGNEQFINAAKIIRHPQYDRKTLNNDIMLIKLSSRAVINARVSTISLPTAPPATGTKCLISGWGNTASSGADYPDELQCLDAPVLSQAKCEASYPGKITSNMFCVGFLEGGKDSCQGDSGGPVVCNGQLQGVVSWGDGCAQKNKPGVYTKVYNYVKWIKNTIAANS

| K ass [1] | K ass [2] | K ass [3] | K ass [4] | K ass [5] | Ratio [6] | Ratio [7] | Ratio [8] | Ratio [9] | K ass [10] | K ass [11] | K ass [12] | K ass [13] | SMILES |
| --- | --- | --- | --- | --- | --- | --- | --- | --- | --- | --- | --- | --- | --- |
| 1.8e+06 l M-1 | 4.6e+08 l M-1 | 32000 l M-1 | 8.8e+07 l M-1 | 50000 l M-1 | 14000 | 8500 | 260 | 5.2 | – | – | – | – | CN[C@H](Cc1ccccc1)C(=O)N1CCC[C@H]1C(=O)N[C@H](C=O)CCCNC(=N)N |
| 1200 l M-1 | 5.5e+06 l M-1 | 180 l M-1 | 170000 l M-1 | 6000 l M-1 | 31000 | 920 | 4600 | 33 | – | – | – | – | NC(N)=NCCCCNC(=O)C1CCCN1C(=O)[C@H](N)Cc1ccccc1 (some centres undefined) |
| 1100 l M-1 | 2.4e+06 l M-1 | 180 l M-1 | 240000 l M-1 | 1100 l M-1 | 13000 | 2100 | 2100 | 10 | – | – | – | – | CN[C@H](Cc1ccccc1)C(=O)N1CCC[C@H]1C(=O)NCCCCN=C(N)N |
| 1.4e+06 l M-1 | 5.4e+08 l M-1 | 42000 l M-1 | 1.1e+08 l M-1 | 290000 l M-1 | 13000 | 1800 | 390 | 5.1 | – | – | – | – | NC(N)=NCCC[C@@H](C=O)NC(=O)[C@@H]1CCCN1C(=O)[C@H](N)Cc1ccccc1 |
| – | 1.3e+06 l M-1 | – | 2700 l M-1 | – | > 5200 | > 5200 | > 5200 | 480 | < 250 l M-1 | < 250 l M-1 | < 250 l M-1 | – | NC(N)=NCCCCCNC(=O)[C@@H]1CCCN1C(=O)[C@H](N)Cc1ccccc1 |
| – | 1.4e+06 l M-1 | – | 14000 l M-1 | 4100 l M-1 | 5600 | 341 | > 5600 | 100 | < 250 l M-1 | < 250 l M-1 | – | – | NC(N)=NCCCNC(=O)[C@@H]1CCCN1C(=O)[C@H](N)Cc1ccccc1 |
| – | 24000 l M-1 | – | 600 l M-1 | – | – | – | – | – | < 250 l M-1 | < 250 l M-1 | – | < 250 l M-1 | NC(N)=NCCCCCCNC(=O)[C@@H]1CCCN1C(=O)[C@H](N)Cc1ccccc1 |
